pIC50: −log10 of the molar value.
Target: hPAD4 enzyme (Homo sapiens (Human), UniProt Q9UM07)
Experiment: RFMS2 assay (RapidFire mass spectrometry, TSTGGRQGSHH peptide substrate)
Assay type: biochemical
Settings: 35 nM recombinant human PAD4, 500 μM TSTGGRQGSHH peptide, 30 minutes at room temperature; read-out: RFMS 2 IC50
Procedure: Stock compounds were dissolved and stored in 100% DMSO. Compound solutions were prepared via serial dilution at 3-fold intervals in DMSO with top compound concentration at 20 μM in each assay. 0.25 μl of compound solution was transferred from the compound plate to the assay plate by using an acoustic dispenser.
• Total reaction volume: 25 μl • Assay buffer: […] pH 7.4, 200 mM NaCl, 2 mM CaCl2, 5 mM DTT • 35 nM recombinant human PAD4 • 500 μM TSTGGRQGSHH peptide • 1.2% DMSO • Stop solution: 10% formic acid
Reaction mixtures were incubated at room temperature for 30 minutes. 10 μl each of the reaction mixtures was then mixed with 40 μl of 10% formic acid in a microtiter plate. The plate was frozen at −80° C. before shipping out on dry ice for RapidFire mass spectroscopy analysis.
Thawed samples were loaded onto the Rapid Fire 300 system (Agilent) wherein they were first sipped for 250 ms and then loaded onto a Agilent “C” (C18) cartridge using a mobile phase of water containing 0.09% formic acid/0.01% trifluoroacetic acid for 3000 ms desalting flowing at a rate of 1.5 ml/min. Once the samples were loaded and washed, a mobile phase of acetonitrile containing 0.09% formic acid/0.01% trifluoroacetic acid was used to elute the samples directly onto a Sciex API4000 triple quadrupole mass spectrometer for 3000 ms at a flow rate of 1.25 ml/min.
MRM transitions for substrate and product were monitored in positive ESI mode at m/z=562.3/969.7 and m/z=562.8/541.3 respectively. The dwell time for each transition was set at 100 ms, and the ESI voltage was used at 5500 with a source temperature of 650° C. Extracted ion peaks for each transition were integrated using the Rapid Fire Integrator software.
Compounds having an activity designated as “A” provided an IC50≤10 nM; compounds having an activity designated as “B” provided an IC50 11-100 nM; compounds having an activity designated as “C” provided an IC50 101-500 nM; compounds having an activity designated as “D” provided an IC50 501-1000 nM; compounds having an activity designated as “E” provided an IC50>1000 nM.

Sequence of hPAD4 enzyme (Q9UM07 whole entry): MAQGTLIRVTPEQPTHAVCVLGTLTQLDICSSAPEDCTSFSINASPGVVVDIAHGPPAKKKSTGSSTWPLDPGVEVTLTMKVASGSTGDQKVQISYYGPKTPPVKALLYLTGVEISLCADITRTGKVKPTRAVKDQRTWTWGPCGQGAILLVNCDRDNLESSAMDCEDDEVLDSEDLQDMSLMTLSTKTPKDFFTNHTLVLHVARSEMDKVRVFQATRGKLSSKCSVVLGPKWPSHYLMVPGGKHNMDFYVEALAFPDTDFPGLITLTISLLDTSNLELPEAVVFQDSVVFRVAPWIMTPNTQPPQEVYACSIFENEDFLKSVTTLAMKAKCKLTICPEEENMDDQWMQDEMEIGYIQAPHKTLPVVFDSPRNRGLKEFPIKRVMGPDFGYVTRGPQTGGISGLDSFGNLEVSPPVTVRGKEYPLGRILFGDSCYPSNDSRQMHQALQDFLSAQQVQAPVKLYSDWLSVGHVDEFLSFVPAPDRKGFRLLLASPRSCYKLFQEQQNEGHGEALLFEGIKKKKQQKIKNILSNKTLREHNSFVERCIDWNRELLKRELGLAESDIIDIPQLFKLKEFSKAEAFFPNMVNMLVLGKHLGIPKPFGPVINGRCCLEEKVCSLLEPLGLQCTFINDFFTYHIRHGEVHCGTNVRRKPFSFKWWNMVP

pIC50 | Compound
6.30 to 7.00 | COc1ccc2cc(-c3nc4cc5c(cc4n3C)CCN(C[C@H](N)CF)C5=O)n(CC3CC3)c2n1 [Example 62, (S)-6-(2-amino-3-fluoropropyl)-2-(1-(cyclopropylmethyl)-6-methoxy-1H-pyrrolo[2,3-b]pyridin-2-yl)-1-methyl-1,6,7,8-tetrahydro-H-imidazo[4,5-g]isoquinolin-5-one]
6.00 to 6.30 | CNC(=O)c1ccc2cc(-c3nc4cc5c(cc4n3C)CCN(C[C@H](N)CF)C5=O)n(CC3CC3)c2n1 [Example 63, (S)-2-(6-(2-amino-3-fluoropropyl)-1-methyl-5-oxo-5,6,7,8-tetrahydro-1H-imidazo[4,5-g]isoquinolin-2-yl)-1-(cyclopropylmethyl)-N-methyl-1H-pyrrolo[2,3-b]pyridine-6-carboxamide]
6.00 to 6.30 | CN(C)C(=O)c1ccc2cc(-c3nc4cc5c(cc4n3C)CCN(C[C@H](N)CF)C5=O)n(CC3CC3)c2n1 [Example 64, (S)-2-(6-(2-amino-3-fluoropropyl)-1-methyl-5-oxo-5,6,7,8-tetrahydro-1H-imidazo[4,5-g]isoquinolin-2-yl)-1-(cyclopropylmethyl)-N,N-dimethyl-1H-pyrrolo[2,3-b]pyridine-6-carboxamide]
6.30 to 7.00 | COc1c(F)ccc2cc(-c3nc4cc5c(cc4n3C)CCN(C[C@H](N)CF)C5=O)n(CC3CC3)c12 [Example 66, (S)-6-(2-amino-3-fluoropropyl)-2-(1-(cyclopropylmethyl)-6-fluoro-7-methoxy-1H-indol-2-yl)-1-methyl-1,6,7,8-tetrahydro-5H-imidazo[4,5-g]isoquinolin-5-one]
< 6.00 | Cn1c(-c2cc3ccc(C(=O)O)cc3n2CC2CC2)nc2cc3c(cc21)CCN(C[C@H](N)CF)C3=O [Example 67, (S)-2-(6-(2-amino-3-fluoropropyl)-1-methyl-5-oxo-5,6,7,8-tetrahydro-1H-imidazo[4,5-g]isoquinolin-2-yl)-1-(cyclopropylmethyl)-1H-indole-6-carboxylic acid]
< 6.00 | CN(C)c1cccc2cc(-c3nc4cc5c(cc4n3C)CCN(C[C@H](N)CF)C5=O)n(CC3CC3)c12 [Example 69, (S)-6-(2-amino-3-fluoropropyl)-2-(1-(cyclopropylmethyl)-7-(dimethylamino)-1H-indol-2-yl)-1-methyl-1,6,7,8-tetrahydro-5H-imidazo[4,5-g]isoquinolin-5-one]
< 6.00 | Cn1c(-c2cc3cccc(N4CCOCC4)c3n2CC2CC2)nc2cc3c(cc21)CCN(C[C@H](N)CF)C3=O [Example 70]
6.30 to 7.00 | C[C@@H](N)CN1CCc2cc3c(cc2C1=O)nc(-c1cc2ccccc2n1CC1CCC1)n3C [Example 71, (R)-6-(2-aminopropyl)-2-(1-(cyclobutylmethyl)-1H-indol-2-yl)-1-methyl-1,6,7,8-tetrahydro-5H-imidazo[4,5-g]isoquinolin-5-one]
6.30 to 7.00 | C[C@@H](N)CN1CCc2cc3c(cc2C1=O)nc(-c1cc2ccccc2n1CC1CCCC1)n3C [Example 72, (R)-6-(2-aminopropyl)-2-(1-(cyclopentylmethyl)-1H-indol-2-yl)-1-methyl-1,6,7,8-tetrahydro-5H-imidazo[4,5-g]isoquinolin-5-one]
< 6.00 | C[C@@H](N)CN1CCc2cc3c(cc2C1=O)nc(-c1cc2ccccc2n1CC12CC(C1)C2)n3C [Example 73, (R)-6-(2-aminopropyl)-2-(1-(bicyclo[1.1.1]pentan-1-ylmethyl)-1H-indol-2-yl)-1-methyl-1,6,7,8-tetrahydro-5H-imidazo[4,5-g]isoquinolin-5-one]
6.00 to 6.30 | CC(C)Cn1c(-c2nc3cc4c(cc3n2C)CCN(C[C@@H](C)N)C4=O)cc2ccccc21 [Example 74, (R)-6-(2-aminopropyl)-2-(1-isobutyl-1H-indol-2-yl)-1-methyl-1,6,7,8-tetrahydro-5H-imidazo[4,5-g]isoquinolin-5-one]
6.00 to 6.30 | COC1CC(Cn2c(-c3nc4cc5c(cc4n3C)CCN(C[C@@H](C)N)C5=O)cc3ccccc32)C1 (stereo partly drawn) [Example 75, (R)-6-(2-aminopropyl)-2-(1-((3-methoxycyclobutyl)methyl)-1H-indol-2-yl)-1-methyl-1,6,7,8-tetrahydro-5H-imidazo[4,5-g]isoquinolin-5-one]
< 6.00 | COCCn1c(-c2nc3cc4c(cc3n2C)CCN(C[C@@H](C)N)C4=O)cc2ccccc21 [Example 76, (R)-6-(2-aminopropyl)-2-(1-(2-methoxyethyl)-1H-indol-2-yl)-1-methyl-1,6,7,8-tetrahydro-5H-imidazo[4,5-g]isoquinolin-5-one]
6.30 to 7.00 | C[C@@H](N)CN1CCc2cc3c(cc2C1=O)nc(-c1cc2ccccc2n1CCC1CC1)n3C [Example 77, (R)-6-(2-aminopropyl)-2-(1-(2-cyclopropylethyl)-1H-indol-2-yl)-1-methyl-1,6,7,8-tetrahydro-5H-imidazo[4,5-g]isoquinolin-5-one]
6.30 to 7.00 | C[C@@H](N)CN1CCc2cc3c(cc2C1=O)nc(-c1cc2ccccc2n1Cc1ccccc1)n3C [Example 78, (R)-6-(2-aminopropyl)-2-(1-benzyl-1H-indol-2-yl)-1-methyl-1,6,7,8-tetrahydro-5H-imidazo[4,5-g]isoquinolin-5-one]
< 6.00 | CCn1c(-c2nc3cc4c(cc3n2C)CCN(C[C@@H](C)N)C4=O)cc2cccnc21 [Example 79, (R)-6-(2-aminopropyl)-2-(1-ethyl-1H-pyrrolo[2,3-b]pyridin-2-yl)-1-methyl-1,6,7,8-tetrahydro-5H-imidazo[4,5-g]isoquinolin-5-one]
6.30 to 7.00 | C[C@@H](N)CN1CCc2cc3c(cc2C1=O)nc(-c1cc2ccccc2n1Cc1cccnc1)n3C [Example 80, (R)-6-(2-aminopropyl)-1-methyl-2-(1-(pyridin-3-ylmethyl)-1H-indol-2-yl)-1,6,7,8-tetrahydro-5H-imidazo[4,5-g]isoquinolin-5-one]
< 6.00 | C[C@@H](N)CN1CCc2cc3c(cc2C1=O)nc(-c1cc2ccccc2n1Cc1ccncc1)n3C [Example 81, (R)-6-(2-aminopropyl)-1-methyl-2-(1-(pyridin-4-ylmethyl)-1H-indol-2-yl)-1,6,7,8-tetrahydro-5H-imidazo[4,5-g]isoquinolin-5-one]
6.00 to 6.30 | C=CCn1c(-c2nc3cc4c(cc3n2C)CCN(C[C@@H](C)N)C4=O)cc2ccccc21 [Example 82, (R)-2-(1-allyl-1H-indol-2-yl)-6-(2-aminopropyl)-1-methyl-1,6,7,8-tetrahydro-5H-imidazo[4,5-g]isoquinolin-5-one]
6.30 to 7.00 | Cc1ccc2cc(-c3nc4cc5c(cc4n3C)CCN(C[C@@H](C)N)C5=O)n(CC3CCC3)c2c1 [Example 83]
6.30 to 7.00 | C[C@@H](N)CN1CCc2cc3c(cc2C1=O)nc(-c1cc2ccccc2n1Cc1ccccn1)n3C [Example 84, (R)-6-(2-aminopropyl)-1-methyl-2-(1-(pyridin-2-ylmethyl)-1H-indol-2-yl)-1,6,7,8-tetrahydro-5H-imidazo[4,5-g]isoquinolin-5-one]
< 6.00 | C[C@@H](O)CN1CCc2cc3c(cc2C1=O)nc(-c1cc2ccccc2n1CC1CC1)n3C [Example 85, (R)-2-(1-(cyclopropylmethyl)-1H-indol-2-yl)-6-(2-hydroxypropyl)-1-methyl-1,6,7,8-tetrahydro-5H-imidazo[4,5-g]isoquinolin-5-one]
6.00 to 6.30 | COCCn1c(-c2nc3cc4c(cc3n2C)CCN(C[C@@H](C)N)C4=O)cc2cccc(C)c21 [Example 87, (R)-6-(2-aminopropyl)-2-(1-(2-methoxyethyl)-7-methyl-1H-indol-2-yl)-1-methyl-1,6,7,8-tetrahydro-5H-imidazo[4,5-g]isoquinolin-5-one]
6.30 to 7.00 | COCCn1c(-c2nc3cc4c(cc3n2C)CCN(C[C@@H](C)N)C4=O)cc2cccc(OC)c21 [Example 88, (R)-6-(2-aminopropyl)-2-(7-methoxy-1-(2-methoxyethyl)-1H-indol-2-yl)-1-methyl-1,6,7,8-tetrahydro-5H-imidazo[4,5-g]isoquinolin-5-one]
6.30 to 7.00 | Cc1cccc2cc(-c3nc4cc5c(cc4n3C)CCN(C[C@@H](C)N)C5=O)n(CC3CCC3)c12 [Example 89, (R)-6-(2-aminopropyl)-2-(1-(cyclobutylmethyl)-7-methyl-1H-indol-2-yl)-1-methyl-1,6,7,8-tetrahydro-5H-imidazo[4,5-g]isoquinolin-5-one]
6.30 to 7.00 | CCn1c(-c2nc3cc4c(cc3n2C)CCN(C[C@@H](C)N)C4=O)cc2cccc(OC)c21 [Example 90, (R)-6-(2-aminopropyl)-2-(1-ethyl-7-methoxy-1H-indol-2-yl)-1-methyl-1,6,7,8-tetrahydro-5H-imidazo[4,5-g]isoquinolin-5-one]
6.30 to 7.00 | COc1cccc2cc(-c3nc4cc5c(cc4n3C)CCN(C[C@@H](C)N)C5=O)n(CCOC3CC3)c12 [Example 91]

Reference: patent US20250346592A1 (Celgene Corporation, priority 2022, published 2025)
